Results as given in article PMC11108815 (Heliyon, 2024).
Marks after values point to notes of the source that are not given here.

Legend:
[1] = Stability test of QC samples; type: physicochemical, rat
[2] = Pharmacokinetics in rat plasma; type: in vivo, Wistar rats; conditions: for AUC(0-inf): AUC0-∞; for CL/F: CLz/F; for MRT last: MRT0-t; for MRT inf: MRT0-∞
[3] = rats, oral, 12.5 to 50 mg kg^−1; cited from earlier work
[4] = Store at 4 °C for 24 h, high concentration QC sample in rat plasma
[5] = Store at 4 °C for 24 h, low concentration QC sample in rat plasma
[6] = Store at 4 °C for 24 h, medium concentration QC sample in rat plasma
[7] = Store at room temperature for 12 h, high concentration QC sample in rat plasma
[8] = Store at room temperature for 12 h, low concentration QC sample in rat plasma
[9] = Store at room temperature for 12 h, medium concentration QC sample in rat plasma
[10] = Store at −20 °C for 20 days, high concentration QC sample in rat plasma
[11] = Store at −20 °C for 20 days, low concentration QC sample in rat plasma
[12] = Store at −20 °C for 20 days, medium concentration QC sample in rat plasma
[13] = Three freeze-thaw cycles, high concentration QC sample in rat plasma
[14] = Three freeze-thaw cycles, low concentration QC sample in rat plasma
[15] = Three freeze-thaw cycles, medium concentration QC sample in rat plasma
[16] = Wistar, rat, plasma, po, 100 mg/kg, FS-C: normal (blank) rats, oral FS 100 mg kg^−1, n = 6
[17] = Wistar, rat, plasma, po, 100 mg/kg, FT-C: normal (blank) rats, oral FT 100 mg kg^−1, n = 6
[18] = FS-C: normal (blank) rats, oral FS 100 mg kg^−1, n = 6
[19] = FS-M: microcirculation dysfunction model rats, oral FS 100 mg kg^−1, n = 6
[20] = FT-C: normal (blank) rats, oral FT 100 mg kg^−1, n = 6
[21] = FT-M: microcirculation dysfunction model rats, oral FT 100 mg kg^−1, n = 6

With `O=C(/C=C/c1ccc(O)c(O)c1)O[C@H](Cc1ccc(O)c(O)c1)C(=O)O` [Rosmarinic acid] the “Stability, Accuracy (RE, %)” value [1, 4] was 5.57%, the “Stability, Accuracy (RE, %)” value [1, 5] was −6.18% and the “Stability, Accuracy (RE, %)” value [1, 6] was 0.63%. For the same molecule, the “Stability, Accuracy (RE, %)” value [1, 7] was −10.92%, the “Stability, Accuracy (RE, %)” value [1, 8] was −3.95% and the “Stability, Accuracy (RE, %)” value [1, 9] was −0.80%. The “Stability, Accuracy (RE, %)” value [1, 10] was 0.99%, the “Stability, Accuracy (RE, %)” value [1, 11] was 1.19% and the “Stability, Accuracy (RE, %)” value [1, 12] was 6.02%. For the same molecule, the “Stability, Accuracy (RE, %)” value [1, 13] was −4.84%, the “Stability, Accuracy (RE, %)” value [1, 14] was 1.82% and the “Stability, Accuracy (RE, %)” value [1, 15] was −0.56%. It also gave an AUC(0-t) ([2]; Wistar, rat, plasma, po, 100 mg/kg, AUC0-t, FS-C: normal (blank) rats, oral FS 100 mg kg^−1, n = 6) of 218 ± 14.9 ng·h/mL, an AUC(0-t) ([2]; Wistar, rat, plasma, po, 100 mg/kg, AUC0-t, FT-C: normal (blank) rats, oral FT 100 mg kg^−1, n = 6) of 104 ± 17.2 ng·h/mL and an AUC(0-inf) [2, 16] of 222 ± 20.6 ng·h/mL. For the same molecule, the AUC(0-inf) [2, 17] was 109 ± 28.6 ng·h/mL, the CL/F [2, 16] was 2060 mL/min/kg and the CL/F [2, 17] was 3430 mL/min/kg. The Cmax ([2]; Wistar, rat, plasma, po, 100 mg/kg, Cmax, FS-C: normal (blank) rats, oral FS 100 mg kg^−1, n = 6) was 54.5 ± 5.34 ng/mL, the Cmax ([2]; Wistar, rat, plasma, po, 100 mg/kg, Cmax, FT-C: normal (blank) rats, oral FT 100 mg kg^−1, n = 6) was 16.4 ± 4.28 ng/mL and the MRT last [2, 16] was 5.01 ± 0.38 h. For the same molecule, the MRT last [2, 17] was 7.95 ± 1.33 h, the MRT inf [2, 16] was 5.48 ± 1.41 h and the MRT inf [2, 17] was 8.82 ± 3.43 h. For the same molecule, the half-life ([2]; Wistar, rat, plasma, po, 100 mg/kg, T1/2, FS-C: normal (blank) rats, oral FS 100 mg kg^−1, n = 6) was 2.42 ± 2.5 h, the half-life ([2]; Wistar, rat, plasma, po, 100 mg/kg, T1/2, FT-C: normal (blank) rats, oral FT 100 mg kg^−1, n = 6) was 2.91 ± 3.72 h and the Tmax ([2]; Wistar, rat, plasma, po, 100 mg/kg, Tmax, FS-C: normal (blank) rats, oral FS 100 mg kg^−1, n = 6) was 0.39 ± 0.09 h. For the same molecule, the Tmax ([2]; Wistar, rat, plasma, po, 100 mg/kg, Tmax, FT-C: normal (blank) rats, oral FT 100 mg kg^−1, n = 6) was 0.22 ± 0.09 h, the Tmax ([2]; Wistar, rat, plasma, po, 100 mg/kg, Tmax, control group, after oral administration of FS or FT) was under 0.39 h and the “MRT0-t after oral FT compared with the FS group” value ([2]; both before and after modeling) was “increased”. The “CLz/F in FT compared with FS” value ([2]; normal group, p < 0.01) was “higher”, the “AUC0-t in FT compared with FS” value ([2]; normal group, p < 0.01, 0.05) was “significantly lower” and the “AUC0-∞ in FT compared with FS” value ([2]; normal group, p < 0.01, 0.05) was “significantly lower”. The “Cmax in FT compared with FS” value ([2]; normal group, p < 0.01, 0.05) was “significantly lower”, the “Cmax after modeling compared with control group” value ([2]; oral administration of FS) was “increased” and the pharmacokinetic characteristics [3] was “fast absorption, moderate elimination and low absolute bioavailability”.
For `O=C(/C=C/c1ccc(O)c2oc(-c3ccc(O)c(O)c3)cc12)O[C@H](Cc1ccc(O)c(O)c1)C(=O)O` [Salvianolic acid C], the “Stability, Accuracy (RE, %)” value [1, 4] was 7.30%, the “Stability, Accuracy (RE, %)” value [1, 5] was −9.02% and the “Stability, Accuracy (RE, %)” value [1, 6] was −3.01%. The “Stability, Accuracy (RE, %)” value [1, 7] was −13.32%, the “Stability, Accuracy (RE, %)” value [1, 8] was 4.15% and the “Stability, Accuracy (RE, %)” value [1, 9] was 1.94%. The “Stability, Accuracy (RE, %)” value [1, 10] was −1.60%, the “Stability, Accuracy (RE, %)” value [1, 11] was −1.94% and the “Stability, Accuracy (RE, %)” value [1, 12] was 4.74%. For the same molecule, the “Stability, Accuracy (RE, %)” value [1, 13] was −3.54%, the “Stability, Accuracy (RE, %)” value [1, 14] was −5.18% and the “Stability, Accuracy (RE, %)” value [1, 15] was 7.92%. The “AUC0-∞” value [2, 18] was 33.09 ± 32.59 ng·h/mL, the AUC(0-t) [2, 18] was 30.14 ± 25.77 ng·h/mL and the CLz/F [2, 18] was 1061 ± 557.5 mL/min/kg. For the same molecule, the Cmax [2, 18] was 11.01 ± 2.17 ng/mL, the MRT0-t [2, 18] was 3.65 ± 4.31 h and the “MRT0-∞” value [2, 18] was 4.61 ± 6.46 h. The T1/2 [2, 18] was 7.30 ± 4.55 h, the Tmax [2, 18] was 0.67 ± 0.26 h and the “AUC0-∞” value [2, 19] was 55.32 ± 49.60 ng·h/mL. The AUC(0-t) [2, 19] was 39.25 ± 24.96 ng·h/mL, the CLz/F [2, 19] was 689.2 ± 416.2 mL/min/kg and the Cmax [2, 19] was 11.09 ± 3.14 ng/mL. For the same molecule, the MRT0-t [2, 19] was 4.52 ± 4.05 h, the “MRT0-∞” value [2, 19] was 10.25 ± 12.88 h and the T1/2 [2, 19] was 8.45 ± 8.99 h. The Tmax [2, 19] was 0.75 ± 0.27 h, the “AUC0-∞” value [2, 20] was 30.07 ± 23.22 ng·h/mL and the AUC(0-t) [2, 20] was 29.34 ± 21.99 ng·h/mL. The CLz/F [2, 20] was 1134 ± 771.3 mL/min/kg, the Cmax [2, 20] was 7.05 ± 1.64 ^b μg·L^−1 and the MRT0-t [2, 20] was 4.27 ± 3.46 h. The “MRT0-∞” value [2, 20] was 4.55 ± 3.95 h, the T1/2 [2, 20] was 3.31 ± 1.82 h and the Tmax [2, 20] was 0.28 ± 0.14 ^b h. The “AUC0-∞” value [2, 21] was 40.99 ± 46.75 ng·h/mL, the AUC(0-t) [2, 21] was 29.64 ± 22.98 ng·h/mL and the CLz/F [2, 21] was 1061 ± 726.2 mL/min/kg. The Cmax [2, 21] was 8.95 ± 6.01 ng/mL, the MRT0-t [2, 21] was 3.90 ± 3.23 h and the “MRT0-∞” value [2, 21] was 8.76 ± 14.72 h. For the same molecule, the T1/2 [2, 21] was 10.67 ± 9.80 h, the Tmax [2, 21] was 1.22 ± 0.66 ^f h and the “Cmax in FT compared with FS” value ([2]; normal group, p < 0.01, 0.05) was “significantly lower”.
